# Experimental data reported in patent US20250186541A1, “DLL3 TARGETING PEPTIDES AND CONSTRUCTS THEREOF” (MARIANA ONCOLOGY INC., priority 2023, published 2025).
# Numbered stars: 1 amine (or outer) side, 2 acyl side, 3 side chain; on linkers, the order of the positions; unused ones are H or OH. Bridge positions count the residues as written; N and C are the ends. Square brackets hold non-standard residues; d marks the D form. Side chains are listed from the residue outwards. Peptide text beside a SMILES is read from it. * marks the point of attachment. ξ: configuration not given here. Ala(piperidin-4-yl) = O=C([C@H](CC1CCN([*:3])CC1)N[*:1])[*:2]; DOTA = O=C(O)CN1CCN(CC(=O)O)CCN(CC(=O)*)CCN(CC(=O)O)CC1; Phe(4-CH2NH2) = NCc1ccc(C[C@H](N)C(=O)O)cc1; 1Nal = N[C@@H](Cc1cccc2ccccc12)C(=O)O; 2Nal = N[C@@H](Cc1ccc2ccccc2c1)C(=O)O; NMetBuAla = CN[C@@H](CC(C)(C)C)C(=O)O; Phe(2-Me) = Cc1ccccc1C[C@H](N)C(=O)O; ξγGlu = O=C(O)C(CCC(=O)[*:2])N[*:1]; tBuAla = CC(C)(C)C[C@H](N)C(=O)O; AllylGly = C=CC[C@H](N)C(=O)O; αMeP = C[C@@]1(C(=O)O)CCCN1; Ahx = NCCCCCC(=O)O
# Biological target: T1, human DLL3 (Homo sapiens, UniProt Q9NYJ7)
# T1 construct: biotin (biotinylated)
# T1 sequence (Q9NYJ7 27-618): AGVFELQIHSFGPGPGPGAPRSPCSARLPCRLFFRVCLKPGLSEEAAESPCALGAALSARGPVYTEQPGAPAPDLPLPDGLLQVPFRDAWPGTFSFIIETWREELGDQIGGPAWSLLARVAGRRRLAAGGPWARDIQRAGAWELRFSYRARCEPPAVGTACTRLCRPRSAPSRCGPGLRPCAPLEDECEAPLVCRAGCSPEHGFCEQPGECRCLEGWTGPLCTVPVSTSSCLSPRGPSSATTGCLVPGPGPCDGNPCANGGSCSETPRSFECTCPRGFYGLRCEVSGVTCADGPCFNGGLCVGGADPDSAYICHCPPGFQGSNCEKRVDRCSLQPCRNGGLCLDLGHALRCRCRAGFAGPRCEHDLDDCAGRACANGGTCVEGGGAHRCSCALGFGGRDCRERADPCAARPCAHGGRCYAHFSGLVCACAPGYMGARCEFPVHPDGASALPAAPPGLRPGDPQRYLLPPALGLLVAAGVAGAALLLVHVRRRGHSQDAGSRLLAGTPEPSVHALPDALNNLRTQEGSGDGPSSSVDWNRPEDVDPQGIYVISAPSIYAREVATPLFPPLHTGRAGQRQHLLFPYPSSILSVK
# Experiment: Affinity determination by Surface Plasmon Resonance (SPR), Biacore, 1:1 binding model
# Details: biotinylated human DLL3 on streptavidin chip, 25° C.; NB = nonbinding
# In short: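 SPR with biotinylated human DLL3 captured on a streptavidin chip, with a reference surface subtracted. Samples were injected at several concentrations at 100 μL/min in phosphate buffer with 137 mM NaCl, 2.7 mM KCl, 0.05% P20 and 2% DMSO. Kinetic and affinity constants came from a 1:1 binding fit.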
row,SMILES,Kd [nM]
1,"CC(=O)N[C@H](C)C(=O)N[C@@H](CO)C(=O)N[C@@H](CC(=O)O)C(=O)N[C@H]1CSSC[C@@H](C(=O)N2CCC[C@@]2(C)C(=O)N[C@@H](Cc2ccccc2C)C(=O)N[C@@H](CC(=O)O)C(N)=O)NC(=O)[C@H](CC(N)=O)NC(=O)[C@H](Cc2ccc3ccccc3c2)NC(=O)[C@H](CCCCNC(=O)CCC(NC(=O)CN2CCN(CC(=O)O)CCN(CC(=O)O)CCN(CC(=O)O)CC2)C(=O)O)NC(=O)[C@H](CC(C)(C)C)NC(=O)[C@H](Cc2cccc3ccccc23)NC1=O (stereo partly drawn) [compound 152, Ac-(D-Ala)-S-D-C(3)-(1Nal)-(t-Bu-Ala)-[L-Lys(yE-DOTA)]-(2Nal)-N-C(3)-(aMe-P)-(2Me-F)-D-CONH2] (Ac-[dA]SDC[1Nal][tBuAla]K([ξγGlu-DOTA])[2Nal]NC[αMeP][Phe(2-Me)]D-NH2; disulfide 4-10)",0.51
2,"CC(=O)N[C@@H](CO)C(=O)N[C@@H](CC(=O)O)C(=O)N[C@H]1C/C=C/C[C@@H](C(=O)N2CCC[C@@]2(C)C(=O)N[C@@H](Cc2ccccc2)C(=O)N[C@@H](CC(=O)O)C(=O)N[C@H](CCCCNC(=O)CN2CCN(CC(=O)O)CCN(CC(=O)O)CCN(CC(=O)O)CC2)C(N)=O)NC(=O)[C@H](CC(N)=O)NC(=O)[C@H](Cc2ccc3ccccc3c2)NC(=O)[C@H](CC2CCNCC2)NC(=O)[C@H](CC(C)(C)C)N(C)C(=O)[C@H](Cc2cccc3ccccc23)NC1=O [compound 189, Ac-S-D-AllyG(4)-(1Nal)-(NMe-Tba)-[3-(4-piperidinyl)-Ala]-(2Nal)-N-AllyG(4)-(aMe-P)-F -D-[D-Lys(DOTA)]-NH2] (Ac-SD[AllylGly][1Nal][NMetBuAla][Ala(piperidin-4-yl)][2Nal]N[AllylGly][αMeP]FD[dK](DOTA)-NH2; staple (E) 3-9)",> 30
3,"Cc1ccccc1C[C@H](NC(=O)[C@]1(C)CCCN1C(=O)[C@@H]1CSSC[C@H](NC(=O)[C@H](CC(=O)O)NC(=O)[C@H](CO)NC(=O)CCCCCNC(=O)CN2CCN(CC(=O)O)CCN(CC(=O)O)CCN(CC(=O)O)CC2)C(=O)N[C@@H](Cc2cccc3ccccc23)C(=O)N[C@@H](CC(C)(C)C)C(=O)N[C@@H](CCC(N)=O)C(=O)N[C@@H](Cc2ccc3ccccc3c2)C(=O)N[C@@H](CC(N)=O)C(=O)N1)C(=O)N[C@@H](CC(=O)O)C(N)=O [compound 155, DOTA-Ahx-S-D-C(3)-(1Nal)-(t-Bu-Ala)-Q-(2Nal)-N-C(3)-(aMe-P)-(2Me-F)-D-CONH2] ({DOTA-Ahx}-SDC[1Nal][tBuAla]Q[2Nal]NC[αMeP][Phe(2-Me)]D-NH2; disulfide 3-9)",0.11
4,"C[C@@H](NC(=O)CN1CCN(CC(=O)O)CCN(CC(=O)O)CCN(CC(=O)O)CC1)C(=O)N[C@@H](CO)C(=O)N[C@@H](CC(=O)O)C(=O)N[C@H]1CSSC[C@@H](C(=O)N2CCC[C@@]2(C)C(=O)N[C@@H](Cc2ccccc2)C(=O)N[C@@H](CC(=O)O)C(N)=O)NC(=O)[C@H](CC(N)=O)NC(=O)[C@H](Cc2ccc3ccccc3c2)NC(=O)[C@H](CC2CCNCC2)NC(=O)[C@H](CC(C)(C)C)NC(=O)[C@H](Cc2cccc3ccccc23)NC1=O [compound 175, DOTA-(D-Ala)-S-D-C(3)-(1Nal)-(t-Bu-Ala)-[3-(4-piperidinyl)-Ala]-(2Nal)-N-C(3)-(aMe-P)-F -D-CONH2] ({DOTA}-[dA]SDC[1Nal][tBuAla][Ala(piperidin-4-yl)][2Nal]NC[αMeP]FD-NH2; disulfide 4-10)",0.067
5,"CC(=O)N[C@H](C)C(=O)N[C@@H](CO)C(=O)N[C@@H](CC(=O)O)C(=O)N[C@H]1C/C=C/C[C@@H](C(=O)N2CCC[C@@]2(C)C(=O)N[C@@H](Cc2ccccc2)C(=O)N[C@@H](CC(=O)O)C(N)=O)NC(=O)[C@H](CC(N)=O)NC(=O)[C@H](Cc2ccc3ccccc3c2)NC(=O)[C@H](Cc2ccc(CNC(=O)CN3CCN(CC(=O)O)CCN(CC(=O)O)CCN(CC(=O)O)CC3)cc2)NC(=O)[C@H](CC2CCNCC2)NC(=O)[C@H](Cc2cccc3ccccc23)NC1=O [compound 204, Ac-(D-Ala)-S-D-AllyG(4)-(1Nal)-[3-(4-piperidinyl)-Ala]-[PAF(DOTA)]-(2Nal)-N-AllyG(4)-(aMe-P)-F-D-CONH2] (Ac-[dA]SD[AllylGly][1Nal][Ala(piperidin-4-yl)][Phe(4-CH2NH2)](DOTA)[2Nal]N[AllylGly][αMeP]FD-NH2; staple (E) 4-10)",1.3
